Reference: the supplement of paper PMC11208160

Assay: recombinant UMI read abundance after kanamycin selection (control-corrected) (log10(CPM+1)); higher = more efficient recombination; extreme values may be limits of the assay; sequences stand for … in AGTGCAGAGAAAATCGGCCAGTTTTCTCTGCCTGCAGTCCGCATGCCGTGGGACCCCTTGGGTTCTAACCTGTTGCCTAGATTTATGCAGCGGACTGCCTTTCTCCCAAAGTGATAAACCGG…AGGTTGGTTTCACT; site = the 11-nt donor
How it was run: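 Under IPTG (0.07 mM) plus kanamycin, or without selection, Escherichia coli carrying a UMI-tagged donor and donor-binding-loop pair library and a target plasmid for the IS621 bridge recombinase were plated in two replicates. Recombinant UMIs were PCR-amplified across the donor–target junction and sequenced. Counts were converted to CPM, averaged over replicates, scaled by control-derived factors and reported as log10(CPM+1).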
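Further: IS621 bridge recombinase in Escherichia coli cells against a fixed T5 target plasmid.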

Sequence	recombinant UMI read abundance (log10)
AGAAGGCCATGGACCGGTTTTCCCGGTAATCCGTATTTGAC (site ATAAGGCCTGT)	0
AGAATGGCATGGACCGGTTTTCCCGGTAATCCGTATTTGCT (site AGAAAGGCTAG)	1.89
AGAATGGCATGGACCGGTTTTCCCGGTAATCCGTATTTGCT (site AGAACGGCTAG)	1.47
AGAATGGCATGGACCGGTTTTCCCGGTAATCCGTATTTGCT (site AGAAGGGCTAG)	0.34
AGAATGGCATGGACCGGTTTTCCCGGTAATCCGTATTTGCT (site AGAATGGCTAG)	2.19
AGACAGGCATGGACCGGTTTTCCCGGTAATCCGTATTTGCT (site AGAAAGGCTAG)	0
AGACAGGCATGGACCGGTTTTCCCGGTAATCCGTATTTGCT (site AGACAGGCTAG)	2.44
AGACAGGCATGGACCGGTTTTCCCGGTAATCCGTATTTGCT (site AGAGAGGCTAG)	0
AGACAGGCATGGACCGGTTTTCCCGGTAATCCGTATTTGCT (site AGATAGGCTAG)	0.555
AGACTTGCATGGACCGGTTTTCCCGGTAATCCGTATTTGCA (site AGACTTGCTTG)	0
AGACTTTCATGGACCGGTTTTCCCGGTAATCCGTATTTGAC (site AGACTTTCTGT)	0
AGACTTTCATGGACCGGTTTTCCCGGTAATCCGTATTTGAC (site AGCCTTTCTGT)	0
AGACTTTCATGGACCGGTTTTCCCGGTAATCCGTATTTGAC (site AGGCTTTCTGT)	0.503
AGACTTTCATGGACCGGTTTTCCCGGTAATCCGTATTTGAC (site AGTCTTTCTGT)	0
AGAGCATCATGGACCGGTTTTCCCGGTAATCCGTATTTGAA (site AGAGCATCTTT)	2.33
AGAGCCCCATGGACCGGTTTTCCCGGTAATCCGTATTTGCA (site AGAGCCCCTTG)	1.71
AGAGGACCATGGACCGGTTTTCCCGGTAATCCGTATTTGGG (site AGAGGACCTCC)	0.0119
AGAGGACCATGGACCGGTTTTCCCGGTAATCCGTATTTGGG (site CGAGGACCTCC)	0.0261
AGAGGACCATGGACCGGTTTTCCCGGTAATCCGTATTTGGG (site GGAGGACCTCC)	0.0142
AGAGGACCATGGACCGGTTTTCCCGGTAATCCGTATTTGGG (site TGAGGACCTCC)	0.0116
AGAGTATCATGGACCGGTTTTCCCGGTAATCCGTATTTGTG (site AGAGTATCTCA)	2.98
AGATAATCATGGACCGGTTTTCCCGGTAATCCGTATTTGTC (site AGATAATCTGA)	2.16
AGATAGGCATGGACCGGTTTTCCCGGTAATCCGTATTTGCA (site AGATAGGCTTG)	2.72
AGATCATCATGGACCGGTTTTCCCGGTAATCCGTATTTGTT (site AGATCATCTAA)	0.929
AGATCATCATGGACCGGTTTTCCCGGTAATCCGTATTTGTT (site CGATCATCTAG)	0

Sequence	recombinant UMI read abundance (log10)
AGATCCGCATGGACCGGTTTTCCCGGTAATCCGTATTTGGT (site AGATCCGCTAC)	0.811
AGATGGCCATGGACCGGTTTTCCCGGTAATCCGTATTTGTG (site AGATGGCCTCA)	0.0259
AGATTATCATGGACCGGTTTTCCCGGTAATCCGTATTTGCA (site ACAGTATCTTG)	2.54
AGATTATCATGGACCGGTTTTCCCGGTAATCCGTATTTGCA (site AGATTATCTTG)	2.9
AGATTCGCATGGACCGGTTTTCCCGGTAATCCGTATTTGGA (site AGATTCGCTTC)	1.89
AGATTTACATGGACCGGTTTTCCCGGTAATCCGTATTTGGA (site AGATTTACTTC)	0.959
AGCAAAACATGGACCGGTTTTCCCGGTAATCCGTATTTGCA (site AGCAAAACTTG)	0.735
AGCAAGGCATGGACCGGTTTTCCCGGTAATCCGTATTTGCA (site AGCAAGGCTTG)	2.5
AGCAAGGCATGGACCGGTTTTCCCGGTAATCCGTATTTGCA (site AGGAAGACTTG)	0.0151
AGCACAGCATGGACCGGTTTTCCCGGTAATCCGTATTTGAC (site AGCACAGCTGT)	2.8
AGCACAGCATGGACCGGTTTTCCCGGTAATCCGTATTTGGG (site AGCACAGCTCC)	0.0126
AGCACAGCATGGACCGGTTTTCCCGGTAATCCGTATTTGGG (site AGCCCAGCTCC)	0.00716
AGCACAGCATGGACCGGTTTTCCCGGTAATCCGTATTTGGG (site AGCGCAGCTCC)	0.0219
AGCACAGCATGGACCGGTTTTCCCGGTAATCCGTATTTGGG (site AGCTCAGCTCC)	0
AGCACCGCATGGACCGGTTTTCCCGGTAATCCGTATTTGGG (site AGCACCGCTCC)	0.0364
AGCACGACATGGACCGGTTTTCCCGGTAATCCGTATTTGCA (site AGCACGACTTG)	2.02
AGCACGACATGGACCGGTTTTCCCGGTAATCCGTATTTGCA (site AGGAAGACTTG)	0
AGCCAAACATGGACCGGTTTTCCCGGTAATCCGTATTTGAA (site AGCCAAACTTT)	1.32
AGCCCCTCATGGACCGGTTTTCCCGGTAATCCGTATTTGCA (site AGCCCCTCTTG)	2.75
AGCCCTCCATGGACCGGTTTTCCCGGTAATCCGTATTTGTT (site AGCCCTCCTAA)	0.00736
AGCCGAGCATGGACCGGTTTTCCCGGTAATCCGTATTTGTT (site AGCCAAGCTAA)	0.398
AGCCGAGCATGGACCGGTTTTCCCGGTAATCCGTATTTGTT (site AGCCCAGCTAA)	0.0229
AGCCGAGCATGGACCGGTTTTCCCGGTAATCCGTATTTGTT (site AGCCGAGCTAA)	0.837
AGCCGAGCATGGACCGGTTTTCCCGGTAATCCGTATTTGTT (site AGCCTAGCTAA)	0.00511
AGCCGTTCATGGACCGGTTTTCCCGGTAATCCGTATTTGAC (site AGCCATTCTGT)	0

Sequence	recombinant UMI read abundance (log10)
AGCCGTTCATGGACCGGTTTTCCCGGTAATCCGTATTTGAC (site AGCCCTTCTGT)	0
AGCCGTTCATGGACCGGTTTTCCCGGTAATCCGTATTTGAC (site AGCCGTTCTGT)	1.9
AGCCGTTCATGGACCGGTTTTCCCGGTAATCCGTATTTGAC (site AGCCTTTCTGT)	0
AGCCTAGCATGGACCGGTTTTCCCGGTAATCCGTATTTGCT (site AGCCTAGCTAA)	0.0111
AGCCTAGCATGGACCGGTTTTCCCGGTAATCCGTATTTGCT (site AGCCTAGCTAC)	0.0198
AGCCTAGCATGGACCGGTTTTCCCGGTAATCCGTATTTGCT (site AGCCTAGCTAG)	0.00934
AGCCTAGCATGGACCGGTTTTCCCGGTAATCCGTATTTGCT (site AGCCTAGCTAT)	0
AGCCTAGCATGGACCGGTTTTCCCGGTAATCCGTATTTGTG (site AGCCTAGCTAA)	0.0164
AGCCTAGCATGGACCGGTTTTCCCGGTAATCCGTATTTGTG (site AGCCTAGCTCA)	0.0603
AGCCTAGCATGGACCGGTTTTCCCGGTAATCCGTATTTGTG (site AGCCTAGCTGA)	0
AGCCTAGCATGGACCGGTTTTCCCGGTAATCCGTATTTGTG (site AGCCTAGCTTA)	0.00858
AGCCTATCATGGACCGGTTTTCCCGGTAATCCGTATTTGTT (site AGCCTAACTAA)	0.0449
AGCCTATCATGGACCGGTTTTCCCGGTAATCCGTATTTGTT (site AGCCTACCTAA)	0.00813
AGCCTATCATGGACCGGTTTTCCCGGTAATCCGTATTTGTT (site AGCCTAGCTAA)	0.0191
AGCCTATCATGGACCGGTTTTCCCGGTAATCCGTATTTGTT (site AGCCTATCTAA)	0
AGCCTCGCATGGACCGGTTTTCCCGGTAATCCGTATTTGTA (site AGCCTCGCTTA)	0.57
AGCCTCGCATGGACCGGTTTTCCCGGTAATCCGTATTTGTT (site AGCCTAGCTAA)	0.0107
AGCCTCGCATGGACCGGTTTTCCCGGTAATCCGTATTTGTT (site AGCCTCGCTAA)	0.0635
AGCCTCGCATGGACCGGTTTTCCCGGTAATCCGTATTTGTT (site AGCCTGGCTAA)	0.00929
AGCCTCGCATGGACCGGTTTTCCCGGTAATCCGTATTTGTT (site AGCCTTGCTAA)	0.0107
AGCCTTGCATGGACCGGTTTTCCCGGTAATCCGTATTTGAC (site AGCCTTACTGT)	0
AGCCTTGCATGGACCGGTTTTCCCGGTAATCCGTATTTGAC (site AGCCTTCCTGT)	0
AGCCTTGCATGGACCGGTTTTCCCGGTAATCCGTATTTGAC (site AGCCTTGCTGT)	1.36
AGCCTTGCATGGACCGGTTTTCCCGGTAATCCGTATTTGAC (site AGCCTTTCTGT)	0
AGCCTTTCATGGACCGGTTTTCCCGGTAATCCGTATTTGTC (site AGCCTTTCTGA)	0
